We go through 22 compounds from patent publication US12448388B2, “PRMT5 inhibitors and uses thereof” (Gilead Sciences, Inc., priority 2023, dated 2025).

Like-named read-outs stand apart in the source and are kept apart here.

Test [1] has as its system HCT116 MTAP-deleted cell lines. The experiment in a line: Cell viability assay (CellTiter-Glo, 7 days), HCT116 MTAP-deleted. It counts as cell-based. The note with it: Homo sapiens, HCT-116. A digest of the protocol: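 CC50 values come from 7-day CellTiter-Glo viability measurements on cells exposed to a dose range of PRMT5 inhibitors dispensed from DMSO stocks.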
(In general: Cellular ATP, detected with luciferase, serves as a proxy for viable cell number.)

In test [2] the test system is Symmetric Di-methyl Arginine (SDMA) signal (PRMT5 inhibition) in HCT116 MTAP-deleted cells. Briefly: Symmetric di-methyl arginine image-based high content screen assay (SDMA assay), HCT116 MTAP-deleted. It counts as cell-based. The note with it: for EC50: Homo sapiens, HCT-116, HCT116 MTAP-deleted, class symbols. A digest of the protocol: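 HCT116 WT and MTAP-deleted cells (800/well, RPMI 1640 + 10% FBS) treated with compound 3 days at 37 °C; formalin-fixed, stained with anti-SDMA antibody/Alexa 488 plus DAPI. Mean SDMA intensity per DAPI-defined cell imaged; EC50 from 4-parameter logistic fit.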

Where [3] appears, read: cell viability, HCT116 MTAP-deleted, class symbols, read-out: CC50.
The mark [4] stands for this setting: HCT116 WT versus HCT116 MTAP-deleted.
Where [5] appears, read: cell viability assay, HCT116 MTAP-deleted, class symbols, read-out: CC50.
[6] abbreviates: HCT116 WT vs HCT116 MTAP-deleted.

What is called CC50 is the concentration at which the toxic effect on the cells reaches its halfway point. The EC50 is the concentration at which the effect is half-maximal. On to `Nc1nc2cc(F)c(C(=O)N(Cc3ccc(-c4cnn(C(F)(F)F)c4)cc3F)C34CC(C3)C4)cc2n2cncc12` [Ff-23, 4-amino-N-(bicyclo[1.1.1]pentan-1-yl)-7-fluoro-N-(2-fluoro-4-(1-(trifluoromethyl)-1H-pyrazol-4-yl)benzyl)imidazo[1,5-a]quinoxaline-8-carboxamide], for which, in test [1] (setting [3]), the CC50 was below 100 nM. Further, the EC50 selectivity in test [2] (setting [4]) came out at 48. In addition, the concentration giving a half-maximal response (EC50) in test [2] is 1 to 5 nM.

Regarding `C[C@H](c1ncccn1)N(Cc1ccc(C(F)(F)F)cn1)C(=O)c1ccc2nc(N)c3cncn3c2c1` [Fe-2, (R)-4-amino-N-(1-(pyrimidin-2-yl)ethyl)-N-((5-(trifluoromethyl)pyridin-2-yl)methyl)imidazo[1,5-a]quinoxaline-8-carboxamide], the CC50 in test [1] (setting [3]) was below 100 nM. In test [2] (setting [4]), the EC50 selectivity was determined as 5. In test [2], this compound yielded an EC50 of at most 1 nM.

Consider `CN(C(=O)c1cc2c(cc1F)nc(N)c1cncn12)[C@@H]1COc2cc(-n3cc(C(F)(F)F)cn3)ccc21` [Ff-545, (S)-4-amino-7-fluoro-N-methyl-N-(6-(4-(trifluoromethyl)-1H-pyrazol-1-yl)-2,3-dihydrobenzofuran-3-yl)imidazo[1,5-a]quinoxaline-8-carboxamide], for which, in test [1] (setting [5]), the half-maximal cytotoxic concentration (CC50) is below 100 nM. Also, the EC50 selectivity in test [2] (setting [6]) was determined as 157. In addition, the EC50 in test [2] lay within 1 to 5 nM.

For `C=Cc1cc2nc(N)c3cncn3c2cc1C(=O)N(C)[C@@H]1COc2cc(C(F)(F)F)ccc21` [Fg-51, (S)-4-amino-N-methyl-N-(6-(trifluoromethyl)-2,3-dihydrobenzofuran-3-yl)-7-vinylimidazo[1,5-a]quinoxaline-8-carboxamide], the cytotoxic concentration (CC50) in test [1] (setting [5]) is below 100 nM. The compound also yielded an EC50 selectivity in test [2] (setting [6]) of 319. This compound showed an EC50 in test [2] of 1 to 5 nM.

On to `CN(C(=O)c1cc2c(cc1Cl)nc(N)c1cncn12)[C@@H]1COc2cc(C(F)(F)F)ccc21` [Ff-10, (S)-4-amino-7-chloro-N-methyl-N-(6-(trifluoromethyl)-2,3-dihydrobenzofuran-3-yl)imidazo[1,5-a]quinoxaline-8-carboxamide], for which the half-maximal cytotoxic concentration (CC50) in test [1] is below 100 nM. In test [2] (setting [4]), this compound returned an EC50 selectivity of 88. For the same compound, in test [2], the EC50 was at most 1 nM.

Regarding `Cc1ncc2c(N)nc3cc(F)c(C(=O)N(C)[C@@H]4COCc5nc(C(F)(F)F)ccc54)cc3n12` [Ff-304, (S)-4-amino-7-fluoro-N,1-dimethyl-N-(2-(trifluoromethyl)-5,8-dihydro-6H-pyrano[3,4-b]pyridin-5-yl)imidazo[1,5-a]quinoxaline-8-carboxamide], the cytotoxic concentration (CC50) in test [1] (setting [3]) was below 100 nM. Moreover, in test [2] (setting [4]), the EC50 selectivity amounted to 127. Besides, the 50% effective concentration (EC50) in test [2] was 1 to 5 nM.

For `CN(C(=O)c1cc2c(cc1F)nc(N)c1cncn12)[C@@H]1COCc2cc(-c3ccn(C(F)(F)F)n3)ccc21` [Ff-280, (S)-4-amino-7-fluoro-N-methyl-N-(7-(1-(trifluoromethyl)-1H-pyrazol-3-yl)isochroman-4-yl)imidazo[1,5-a]quinoxaline-8-carboxamide], in test [1] (setting [3]), the CC50 was below 100 nM. The compound also had an EC50 selectivity in test [2] (setting [4]) of 118. The EC50 in test [2] was 1 to 5 nM.

For the compound `C[C@@H]1CC2Cc3cc(C(F)(F)F)ccc3[C@@H]2N(C(=O)c2cc3c(cc2F)nc(N)c2cncn23)C1` (mixture of isomers) [Ff-320, Rac-(4-amino-7-fluoroimidazo[1,5-a]quinoxalin-8-yl)((3R,4aR,9bR)-3-methyl-7-(trifluoromethyl)-2,3,4,4a,5,9b-hexahydro-1H-indeno[1,2-b]pyridin-1-yl)methanone], the 50% cytotoxic concentration (CC50) in test [1] (setting [3]) is below 100 nM. In test [2] (setting [4]), this compound displayed an EC50 selectivity of 26. In test [2], this compound showed an EC50 of 1 to 5 nM.

On to `Nc1nc2cc(F)c(C(=O)N3CCO[C@@H]4Cc5cc(C(F)F)ccc5[C@@H]43)cc2n2cncc12` [Ff-167, (4-amino-7-fluoroimidazo[1,5-a]quinoxalin-8-yl)((4aS,9aR)-7-(difluoromethyl)-2,3,9,9a-tetrahydroindeno[2,1-b][1,4]oxazin-4(4aH)-yl)methanone], for which the CC50 in test [1] (setting [3]) is below 100 nM. The EC50 selectivity in test [2] (setting [4]) came out at 44. Further, the EC50 in test [2] lay in the range of 1 to 5 nM.

For the compound `CN(C(=O)c1ccc2nc(N)n3cncc3c2c1)[C@@H]1COc2cc(C(F)(F)F)ccc21` [Fg-9, (S)-5-amino-N-methyl-N-(6-(trifluoromethyl)-2,3-dihydrobenzofuran-3-yl)imidazo[1,5-c]quinazoline-9-carboxamide], the CC50 in test [1] (setting [5]) was above 1000 nM. The compound further yielded an EC50 selectivity in test [2] (setting [6]) of 255. The compound further gave a half-maximal effective concentration (EC50) in test [2] above 5 nM.

On to `Nc1nc2ccc(C(=O)N(CC3CC3)[C@@H]3COc4cc(C(F)(F)F)ccc43)cc2n2cncc12` [Ff-407, (S)-4-amino-N-(cyclopropylmethyl)-N-[(3S)-6-(trifluoromethyl)-2,3-dihydrobenzofuran-3-yl]imidazo[1,5-a]quinoxaline-8-carboxamide], for which, in test [1] (setting [5]), the CC50 was below 100 nM. For the same compound, in test [2] (setting [6]), the EC50 selectivity was 65. Besides, in test [2], the EC50 is at most 1 nM.

As to `CN(C(=O)c1cc2c(cc1F)nc(N)c1cncn12)[C@@H]1COc2cc(C(F)(F)F)ncc21` [Ff-673, (S)-4-amino-7-fluoro-N-methyl-N-(6-(trifluoromethyl)-2,3-dihydrofuro[3,2-c]pyridin-3-yl)imidazo[1,5-a]quinoxaline-8-carboxamide], in test [1] (setting [5]), the 50% cytotoxic concentration (CC50) was below 100 nM. The same compound returned an EC50 selectivity in test [2] (setting [6]) of 197. Further, the half-maximal effective concentration (EC50) in test [2] was 1 to 5 nM.

On to `Nc1nc2cc(F)c(C(=O)N3C[C@H](F)CC4Oc5cc(OC(F)(F)F)ccc5C43)cc2n2cncc12` (mixture of isomers) [Fg-57, rac-(4-amino-7-fluoroimidazo[1,5-a]quinoxalin-8-yl)((3R,4aS,9bS)-3-fluoro-7-(trifluoromethoxy)-3,4,4a,9b-tetrahydrobenzofuro[3,2-b]pyridin-1(2H)-yl)methanone], for which the CC50 in test [1] (setting [5]) was below 100 nM. In addition, the EC50 selectivity in test [2] (setting [6]) worked out at 137. Also, in test [2], the half-maximal effective concentration (EC50) is at most 1 nM.

`CN(C(=O)c1cc2c(cc1F)nc(N)c1cncn12)[C@@H]1COCc2cc(Br)ccc21` [Ff-14, (S)-4-amino-N-(7-bromoisochroman-4-yl)-7-fluoro-N-methylimidazo[1,5-a]quinoxaline-8-carboxamide]: the CC50 in test [1] (setting [3]) was below 100 nM. For the same compound, in test [2] (setting [4]), the EC50 selectivity was found to be 241. This compound gave an EC50 in test [2] of at most 1 nM.

Take `Cc1ncc2c3cc(C(=O)N(Cc4ccc(C(F)(F)F)cn4)[C@H](C)c4ncccn4)ccc3nc(N)n12` [Fg-5, (R)-5-amino-3-methyl-N-(1-(pyrimidin-2-yl)ethyl)-N-((5-(trifluoromethyl)pyridin-2-yl)methyl)imidazo[1,5-c]quinazoline-9-carboxamide]: the CC50 in test [1] (setting [5]) is below 100 nM. Also, the EC50 selectivity in test [2] (setting [6]) came out at 19. For the same compound, the EC50 in test [2] was in the range of 1 to 5 nM.

For `CC(C)N(Cc1ccc(C(F)(F)F)cc1F)C(=O)c1ccc2nc(N)c3cncn3c2c1` [Ff-412, 4-amino-N-[[2-fluoro-4-(trifluoromethyl)phenyl]methyl]-N-isopropyl-imidazo[1,5-a]quinoxaline-8-carboxamide], the half-maximal cytotoxic concentration (CC50) in test [1] (setting [5]) is below 100 nM. Moreover, the EC50 selectivity in test [2] (setting [6]) is 252. Further, in test [2], the concentration for a half-maximal effect (EC50) was at most 1 nM.

For the compound `Cc1ncc2c(N)nc3ccc(C(=O)N(C)[C@@H]4COc5nc(C(F)(F)F)ccc54)cc3n12` [Ff-21, (S)-4-amino-N,1-dimethyl-N-(6-(trifluoromethyl)-2,3-dihydrofuro[2,3-b]pyridin-3-yl)imidazo[1,5-a]quinoxaline-8-carboxamide], the cytotoxic concentration (CC50) in test [1] (setting [3]) was 100 to 1000 nM. The compound further showed an EC50 selectivity in test [2] (setting [4]) of 874. The compound also registered a concentration giving a half-maximal response (EC50) in test [2] of 1 to 5 nM.

On to `CN(C(=O)c1cc2c(cc1F)nc(N)c1cncn12)[C@@H]1COc2cc(C#CC3(C)COC3)ccc21` [Ff-516, (S)-4-amino-7-fluoro-N-methyl-N-(6-((3-methyloxetan-3-yl)ethynyl)-2,3-dihydrobenzofuran-3-yl)imidazo[1,5-a]quinoxaline-8-carboxamide], for which, in test [1] (setting [5]), the half-maximal cytotoxic concentration (CC50) was below 100 nM. The compound further had an EC50 selectivity in test [2] (setting [6]) of 337. For the same compound, the EC50 in test [2] is 1 to 5 nM.

With `Nc1nc2cc(F)c(C(=O)N3CCC[C@@H]4Oc5cc(-c6cnn(C(F)F)c6)ccc5[C@@H]43)cc2n2cncc12` [Ff-661, (4-amino-7-fluoroimidazo[1,5-a]quinoxalin-8-yl)((4aS,9bS)-7-(1-(difluoromethyl)-1H-pyrazol-4-yl)-3,4,4a,9b-tetrahydrobenzofuro[3,2-b]pyridin-1(2H)-yl)methanone], the cytotoxic concentration (CC50) in test [1] (setting [5]) is below 100 nM. Moreover, the EC50 selectivity in test [2] (setting [6]) was found to be 147. This compound registered an EC50 in test [2] of at most 1 nM.

In the case of `CN(C(=O)c1ccc2nc(N)c3cncn3c2c1)[C@@H]1COc2cc(C34CC(C(F)F)(C3)C4)ccc21` [Ff-641, (S)-4-amino-N-(6-(3-(difluoromethyl)bicyclo[1.1.1]pentan-1-yl)-2,3-dihydrobenzofuran-3-yl)-N-methylimidazo[1,5-a]quinoxaline-8-carboxamide], the 50% cytotoxic concentration (CC50) in test [1] (setting [5]) is below 100 nM. In test [2] (setting [6]), this compound came in with an EC50 selectivity of 389. In addition, in test [2], the 50% effective concentration (EC50) was at most 1 nM.

As to `C[C@H](c1ncccn1)N(Cc1ccc(C(F)(F)F)cn1)C(=O)c1ccc2nc(N)n3cncc3c2c1` [Fg-1, (R)-5-amino-N-(1-(pyrimidin-2-yl)ethyl)-N-((5-(trifluoromethyl)pyridin-2-yl)methyl)imidazo[1,5-c]quinazoline-9-carboxamide], the CC50 in test [1] (setting [5]) was in the range of 100 to 1000 nM. In test [2] (setting [6]), this compound registered an EC50 selectivity of 50. The compound further had an EC50 in test [2] of 1 to 5 nM.

For the compound `Cc1ncc2c(N)nc3ccc(C(=O)N4CCC5(CC4)CC(=O)c4ccccc4O5)cc3n12` [Ff-60, 1′-(4-amino-1-methylimidazo[1,5-a]quinoxaline-8-carbonyl)spiro[chromane-2,4′-piperidin]-4-one], the CC50 in test [1] (setting [3]) was in the range of 100 to 1000 nM. Further, in test [2] (setting [4]), the EC50 selectivity was 371. The compound also had an EC50 in test [2] above 5 nM.
